Reference: ChEMBL document CHEMBL4196083, “Discovery of meta-sulfamoyl N-hydroxybenzamides as HDAC8 selective inhibitors” (Eur J Med Chem, 2018)
pIC50: −log10 of the molar value.

Legend:
Histone deacetylase 8 = target: T1, Histone deacetylase 8 (Homo sapiens, UniProt Q9BY41); assay: Inhibition of HDAC8 (unknown origin) using Boc-Lys(trifluoroacetyl)-AMC as substrate preincubated for 5 mins followed by substrate addition measured after 30 mins by fluorescence assay
T1 sequence (Q9BY41 whole entry): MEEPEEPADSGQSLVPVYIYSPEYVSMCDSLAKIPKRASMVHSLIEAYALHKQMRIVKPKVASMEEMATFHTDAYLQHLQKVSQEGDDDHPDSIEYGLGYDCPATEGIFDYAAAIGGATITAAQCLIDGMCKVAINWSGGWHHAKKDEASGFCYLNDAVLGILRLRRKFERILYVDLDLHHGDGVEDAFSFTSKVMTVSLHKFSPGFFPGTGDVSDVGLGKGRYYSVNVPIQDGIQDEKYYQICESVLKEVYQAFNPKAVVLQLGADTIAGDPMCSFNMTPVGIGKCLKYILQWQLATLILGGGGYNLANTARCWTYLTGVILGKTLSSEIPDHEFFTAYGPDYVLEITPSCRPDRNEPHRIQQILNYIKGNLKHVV

[1] = target: Histone deacetylase (HDAC1 and HDAC2) (Homo sapiens, UniProt Q13547+Q92769); assay: Inhibition of HDAC1/2 in human HeLa nuclear extract using Boc-Lys(acetyl)-AMC as substrate preincubated for 5 mins followed by substrate addition measured after 30 mins by fluorescence assay; format: ADME, protein assay
[2] = target: T2, Protein deacetylase HDAC6 (Homo sapiens, UniProt Q9UBN7); assay: Inhibition of HDAC6 (unknown origin) using Boc-Lys(acetyl)-AMC as substrate preincubated for 5 mins followed by substrate addition measured after 30 mins by fluorescence assay
T2 sequence (Q9UBN7 whole entry): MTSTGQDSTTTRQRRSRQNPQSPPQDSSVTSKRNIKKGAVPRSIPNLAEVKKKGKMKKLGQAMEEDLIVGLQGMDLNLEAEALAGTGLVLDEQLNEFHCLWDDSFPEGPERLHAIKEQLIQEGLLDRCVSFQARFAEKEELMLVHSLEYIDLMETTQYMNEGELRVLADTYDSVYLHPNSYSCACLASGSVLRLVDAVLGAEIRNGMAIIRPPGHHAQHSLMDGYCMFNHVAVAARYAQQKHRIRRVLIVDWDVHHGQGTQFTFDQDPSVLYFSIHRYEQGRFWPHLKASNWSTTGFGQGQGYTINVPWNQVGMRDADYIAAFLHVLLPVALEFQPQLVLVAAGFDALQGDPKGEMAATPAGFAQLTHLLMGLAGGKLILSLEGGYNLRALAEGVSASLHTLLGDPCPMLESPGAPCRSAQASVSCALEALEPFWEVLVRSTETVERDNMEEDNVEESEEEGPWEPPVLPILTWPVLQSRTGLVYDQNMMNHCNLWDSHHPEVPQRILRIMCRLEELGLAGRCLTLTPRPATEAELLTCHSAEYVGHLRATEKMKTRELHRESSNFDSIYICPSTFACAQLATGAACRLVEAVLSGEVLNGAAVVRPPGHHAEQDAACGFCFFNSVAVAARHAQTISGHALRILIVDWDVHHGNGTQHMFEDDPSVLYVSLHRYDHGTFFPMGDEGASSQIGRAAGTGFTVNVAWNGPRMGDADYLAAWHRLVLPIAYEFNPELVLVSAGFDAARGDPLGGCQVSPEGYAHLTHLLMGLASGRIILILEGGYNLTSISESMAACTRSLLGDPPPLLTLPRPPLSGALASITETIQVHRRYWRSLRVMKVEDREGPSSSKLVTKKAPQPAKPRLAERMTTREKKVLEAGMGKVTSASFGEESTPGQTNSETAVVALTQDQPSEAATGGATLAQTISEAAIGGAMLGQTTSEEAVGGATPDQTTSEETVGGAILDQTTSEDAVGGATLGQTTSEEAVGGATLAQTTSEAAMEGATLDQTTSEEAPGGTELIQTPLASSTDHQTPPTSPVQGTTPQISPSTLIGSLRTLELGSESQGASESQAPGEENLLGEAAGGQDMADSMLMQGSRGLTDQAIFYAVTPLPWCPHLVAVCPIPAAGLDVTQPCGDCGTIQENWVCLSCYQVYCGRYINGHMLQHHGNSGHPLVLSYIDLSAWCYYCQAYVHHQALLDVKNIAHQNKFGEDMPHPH

Histone deacetylase 2 = Histone deacetylase 2 (Homo sapiens, UniProt Q92769); assay: Inhibition of HDAC2 (unknown origin) using Boc-Lys(acetyl)-AMC as substrate preincubated for 5 mins followed by substrate addition measured after 30 mins by fluorescence assay; format: ADME
HeLa = assay: Antiproliferative activity against human HeLa cells after 48 hrs by MTT assay; format: functional, cell-based
[3] = target: Histone deacetylase 1/2/3 (Homo sapiens, UniProt Q13547+O15379+Q92769); assay: Inhibition of HDAC1/2/3 in human HeLa cells assessed as increase in acetyl-histone H4 level at 2 uM after 12 hrs by Western blot analysis
Jurkat = assay: Antiproliferative activity against human Jurkat cells after 48 hrs by MTT assay; format: functional, cell-based
K562 = assay: Antiproliferative activity against human K562 cells after 48 hrs by MTT assay; format: functional, cell-based; details: K562, 48 h
Homo sapiens [4] = organism: Homo sapiens; assay: Selectivity ratio of IC50 for HDAC6 (unknown origin) to IC50 for HDAC8 (unknown origin)
HEL = assay: Antiproliferative activity against human HEL cells after 48 hrs by MTT assay; format: functional, cell-based
[5] = target: T2, Protein deacetylase HDAC6; assay: Inhibition of HDAC6 in human HeLa cells assessed as increase in acetyl-tubulin level at 2 uM after 12 hrs by Western blot analysis; format: cell-based
PC-3 = assay: Antiproliferative activity against human PC3 cells after 48 hrs by MTT assay; format: functional, cell-based; details: PC-3, 48 h
MOLT-4 = assay: Antiproliferative activity against human MOLT4 cells after 48 hrs by MTT assay; format: functional, cell-based; details: MOLT-4, 48 h
Homo sapiens [6] = organism: Homo sapiens; assay: Selectivity ratio of IC50 for HDAC2 (unknown origin) to IC50 for HDAC8 (unknown origin)
[7] = Antiproliferative activity against human SK-N-BE(2) cells after 48 hrs by MTT assay; format: functional, cell-based; details: SKNBE2, 48 h

Sequence of Histone deacetylase 2 (Q92769 whole entry): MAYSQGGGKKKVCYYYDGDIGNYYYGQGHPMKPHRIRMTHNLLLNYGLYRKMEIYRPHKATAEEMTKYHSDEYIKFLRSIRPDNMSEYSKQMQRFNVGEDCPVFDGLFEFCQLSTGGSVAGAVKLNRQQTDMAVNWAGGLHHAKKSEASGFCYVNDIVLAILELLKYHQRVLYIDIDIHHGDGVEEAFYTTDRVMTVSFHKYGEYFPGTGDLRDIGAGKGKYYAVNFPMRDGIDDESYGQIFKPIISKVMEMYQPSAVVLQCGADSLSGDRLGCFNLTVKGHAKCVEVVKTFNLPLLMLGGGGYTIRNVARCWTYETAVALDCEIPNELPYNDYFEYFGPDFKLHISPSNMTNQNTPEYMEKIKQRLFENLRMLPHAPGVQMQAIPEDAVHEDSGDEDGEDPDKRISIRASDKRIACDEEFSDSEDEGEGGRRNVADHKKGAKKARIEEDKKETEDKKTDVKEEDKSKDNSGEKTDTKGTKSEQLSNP

Structure (SMILES) | pIC50 (Histone deacetylase 8) | IC50 [1] | pIC50 [2] | pIC50 (Histone deacetylase 2) | other results
COc1ccc(NC(=O)[C@H](Cc2c[nH]c3ccccc23)NS(=O)(=O)c2cccc(C(=O)NO)c2)cc1 | – | > 20 µM | – | – | –
CN1CCc2c(c3ccccc3n2Cc2ccc(C(=O)NO)cc2)C1 [TUBASTATIN A] | – | – | – | – | inhibition (INH) [5]: Active
O=C(NO)c1cccc(S(=O)(=O)N[C@@H](Cc2c[nH]c3ccccc23)C(=O)Nc2ccccc2)c1 | 5.52 | > 20 µM | 5.23 | 4.15 | –
O=C(CCCCCCC(=O)Nc1ccccc1)NO [VORINOSTAT] | – | – | – | – | inhibition (INH) [5]: Active
O=C(/C=C/c1cccc(S(=O)(=O)Nc2ccccc2)c1)NO [BELINOSTAT] | – | – | – | – | pIC50 [7]: 6.51; pIC50 (HeLa): 6.29; pIC50 (Jurkat): 7.15; pIC50 (HEL): 7.00; pIC50 (MOLT-4): 6.85
O=C(NO)c1cccc(S(=O)(=O)N[C@H](C(=O)Nc2ccc(Cl)cc2)c2ccccc2)c1 | – | > 20 µM | – | – | –
O=C(NO)c1cccc(S(=O)(=O)N[C@H](C(=O)Nc2ccc(F)cc2)c2ccccc2)c1 | – | > 20 µM | – | – | –
O=C(NO)c1cccc(S(=O)(=O)N[C@H](C(=O)NCc2ccccc2)c2ccccc2)c1 | 5.04 | > 20 µM | 4.47 | < 4.00 | –
CC(C)[C@H](NS(=O)(=O)c1cccc(C(=O)NO)c1)C(=O)Nc1ccccc1 | 4.47 | > 20 µM | 4.39 | < 4.00 | –
O=C(NO)c1cccc(S(=O)(=O)NCCc2ccccc2)c1 | 7.22 | > 20 µM | 5.74 | 4.95 | pIC50 [7]: 4.59; pIC50 (HeLa): < 4.30; INH [3]: Not Active; pIC50 (Jurkat): 5.10; pIC50 (K562): < 4.30; Ratio IC50 (Homo sapiens [4]): 30; pIC50 (HEL): 4.48; inhibition (INH) [5]: Not Active; pIC50 (PC-3): < 4.30; pIC50 (MOLT-4): 5.21; Ratio IC50 (Homo sapiens [6]): > 180
COc1ccc(Cn2ccc3ccc(C(=O)NO)cc32)cc1 | – | – | – | – | pIC50 [7]: 4.77; pIC50 (HeLa): < 4.60; pIC50 (Jurkat): 5.35; pIC50 (K562): < 4.60; pIC50 (HEL): 4.97; pIC50 (PC-3): 4.72; pIC50 (MOLT-4): 5.03
C[C@H](NS(=O)(=O)c1cccc(C(=O)NO)c1)C(=O)Nc1ccccc1 | 4.62 | > 20 µM | 4.56 | < 4.00 | –

The next lines start with results.

pIC50 (Histone deacetylase 8) | IC50 [1] | pIC50 [2] | pIC50 (Histone deacetylase 2) | Structure (SMILES) | other results
7.30 | > 20 µM | 5.82 | 4.84 | O=C(NO)c1cccc(S(=O)(=O)Nc2ccccc2)c1 | pIC50 (HeLa): < 4.30; INH [3]: Not Active; pIC50 (Jurkat): 4.55; pIC50 (K562): < 4.30; Ratio IC50 (Homo sapiens [4]): 30; pIC50 (HEL): < 4.30; inhibition (INH) [5]: Not Active; pIC50 (PC-3): < 4.30; pIC50 (MOLT-4): 4.65; Ratio IC50 (Homo sapiens [6]): > 180
– | > 20 µM | – | – | O=C(NO)c1cccc(S(=O)(=O)N[C@@H](Cc2c[nH]c3ccccc23)C(=O)Nc2ccc(Cl)cc2)c1 | –
– | > 20 µM | – | – | COc1ccc(NC(=O)[C@@H](NS(=O)(=O)c2cccc(C(=O)NO)c2)c2ccccc2)cc1 | –
– | > 20 µM | – | – | O=C(NO)c1cccc(S(=O)(=O)N[C@@H](Cc2c[nH]c3ccccc23)C(=O)Nc2ccc(F)cc2)c1 | –
5.46 | > 20 µM | 4.85 | < 4.00 | O=C(CNS(=O)(=O)c1cccc(C(=O)NO)c1)Nc1ccccc1 | –
6.04 | > 20 µM | 5.17 | < 4.00 | O=C(NO)c1cccc(S(=O)(=O)N[C@H](C(=O)Nc2ccccc2)c2ccccc2)c1 | –
4.72 | > 20 µM | 4.61 | < 4.00 | O=C(NO)c1cccc(S(=O)(=O)N[C@@H](Cc2c[nH]c3ccccc23)C(=O)NCc2ccccc2)c1 | –
7.10 | > 20 µM | 5.59 | 4.33 | O=C(NO)c1cccc(S(=O)(=O)NCc2ccccc2)c1 | pIC50 [7]: 4.44; pIC50 (HeLa): < 4.30; INH [3]: Not Active; pIC50 (Jurkat): 4.91; pIC50 (K562): < 4.30; Ratio IC50 (Homo sapiens [4]): 30; pIC50 (HEL): < 4.30; inhibition (INH) [5]: Not Active; pIC50 (PC-3): < 4.30; pIC50 (MOLT-4): 4.95; Ratio IC50 (Homo sapiens [6]): > 180
